Structures are written as SMILES. Where only a bound is given, the exact number is not on record here.

The test concerns the target T1, active p38 alpha enzyme (Upstate Biotechnology) (Homo sapiens, UniProt Q16539).
T1 construct: purchased Upstate Biotechnology
In words: p38α biochemical assay (ATP turnover, luminescent detection, Cambrex PKlight). As to conditions: p38α kinase; Table 1 Biological Activity. A digest of the protocol:
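Active p38α phosphorylates MapkapK2 whole protein with 1.4 uM final ATP, 2 h at 30C, in Tris/MOPS buffer with MgCl2, CaCl2, EGTA, EDTA, glycerol, β-mercaptoethanol and 1 mg/ml BSA. Compounds pin-delivered from DMSO; total ATP turnover read by luminescence after PKlight addition.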

T1 sequence (Q16539 whole entry): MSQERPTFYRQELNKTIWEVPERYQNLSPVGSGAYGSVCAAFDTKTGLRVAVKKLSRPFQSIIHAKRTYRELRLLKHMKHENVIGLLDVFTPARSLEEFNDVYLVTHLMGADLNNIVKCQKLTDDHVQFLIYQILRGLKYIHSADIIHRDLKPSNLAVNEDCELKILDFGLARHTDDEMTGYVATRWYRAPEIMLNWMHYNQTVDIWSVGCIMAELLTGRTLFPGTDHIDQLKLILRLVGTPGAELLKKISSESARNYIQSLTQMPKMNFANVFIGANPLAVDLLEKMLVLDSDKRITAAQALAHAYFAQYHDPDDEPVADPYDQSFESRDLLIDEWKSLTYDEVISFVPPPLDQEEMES

In turn, `CC(C)NC(=O)c1csc(-c2c(-c3ccc(F)cc3)noc2CNCCN)n1` [Example 1389] registered an IC50 of over 1000 nM.
The same measure for `CC(C)NC(=O)c1csc(-c2c(-c3ccc(F)cc3)noc2CNCCC#N)n1` [Example 1390]: over 1000 nM; for `CC(C)NC(=O)c1csc(-c2c(-c3ccc(F)cc3)noc2CNC2CCC2)n1` [Example 1391]: over 1000 nM.
For `CC(C)NC(=O)c1csc(-c2c(-c3ccc(F)cc3)noc2CNCC2CC2)n1` [Example 1392], the IC50 is over 1000 nM.
Compound `CCC(C)NCc1onc(-c2ccc(F)cc2)c1-c1nc(C(=O)NC(C)C)cs1` (stereo not drawn) [Example 1393] gave a half-inhibitory concentration (IC50) of over 1000 nM.
`CC(C)CNCc1onc(-c2ccc(F)cc2)c1-c1nc(C(=O)NC(C)C)cs1` [Example 1394] displayed an IC50 of over 1000 nM.
As to `CC(C)NC(=O)c1csc(-c2c(-c3ccc(F)cc3)noc2CNCCCO)n1` [Example 1395], the concentration for half-maximal inhibition (IC50) was over 1000 nM.
`CC(C)NC(=O)c1csc(-c2c(-c3ccc(F)cc3)noc2CNC(C)CO)n1` (stereo not drawn) [Example 1396] yielded a 50% inhibitory concentration (IC50) of over 1000 nM.
Compound `CC(C)NC(=O)c1csc(-c2c(-c3ccc(F)cc3)noc2CNC2CCCC2)n1` [Example 1397] came in with an IC50 of over 1000 nM.
The same measure for `CCCC(C)NCc1onc(-c2ccc(F)cc2)c1-c1nc(C(=O)NC(C)C)cs1` (stereo not drawn) [Example 1398]: over 1000 nM.
The same measure for `CCC(C)CNCc1onc(-c2ccc(F)cc2)c1-c1nc(C(=O)NC(C)C)cs1` (stereo not drawn) [Example 1399]: over 1000 nM; for `CC(C)NC(=O)c1csc(-c2c(-c3ccc(F)cc3)noc2CNC(C)C(C)C)n1` (stereo not drawn) [Example 1400]: over 1000 nM.
`CC(C)CCNCc1onc(-c2ccc(F)cc2)c1-c1nc(C(=O)NC(C)C)cs1` [Example 1401] showed an IC50 of over 1000 nM.
In the case of `CC(C)NC(=O)c1csc(-c2c(-c3ccc(F)cc3)noc2CNCCN(C)C)n1` [Example 1402], the IC50 was over 1000 nM.
Compound `COCC(C)NCc1onc(-c2ccc(F)cc2)c1-c1nc(C(=O)NC(C)C)cs1` (stereo not drawn) [Example 1403] displayed an IC50 of over 1000 nM.
The same measure for `CCC(CO)NCc1onc(-c2ccc(F)cc2)c1-c1nc(C(=O)NC(C)C)cs1` (stereo not drawn) [Example 1405]: over 1000 nM; for `CC(C)NC(=O)c1csc(-c2c(-c3ccc(F)cc3)noc2CNCCCCO)n1` [Example 1406]: over 1000 nM; for `CC(C)NC(=O)c1csc(-c2c(-c3ccc(F)cc3)noc2CNCc2ccco2)n1` [Example 1407]: over 1000 nM.
The figure for `CC(C)NC(=O)c1csc(-c2c(-c3ccc(F)cc3)noc2CNC2CCCCC2)n1` [Example 1408] is over 1000 nM.
For `CC(C)NC(=O)c1csc(-c2c(-c3ccc(F)cc3)noc2CNCC2CCCO2)n1` (stereo not drawn) [Example 1409], the IC50 was over 1000 nM.
Compound `CC(C)NC(=O)c1csc(-c2c(-c3ccc(F)cc3)noc2CNCCC(C)(C)C)n1` [Example 1410] gave a 50% inhibitory concentration (IC50) of over 1000 nM.
Compound `CC(C)CC(C)NCc1onc(-c2ccc(F)cc2)c1-c1nc(C(=O)NC(C)C)cs1` (stereo not drawn) [Example 1411] gave a 50% inhibitory concentration (IC50) of over 1000 nM.
As to `CC(C)NC(=O)c1csc(-c2c(-c3ccc(F)cc3)noc2CNC2CONC2=O)n1` (stereo not drawn) [Example 1412], the IC50 was over 1000 nM.
For `CC(C)NC(=O)c1csc(-c2c(-c3ccc(F)cc3)noc2CNN2CCOCC2)n1` [Example 1413], the IC50 was over 1000 nM.
As to `CC(C)NC(=O)c1csc(-c2c(-c3ccc(F)cc3)noc2CNC(CO)C(C)C)n1` (stereo not drawn) [Example 1414], the concentration for half-maximal inhibition (IC50) is over 1000 nM.
The compound `CC(C)NC(=O)c1csc(-c2c(-c3ccc(F)cc3)noc2CNCc2ccccc2)n1` [Example 1415] yielded an IC50 of over 1000 nM.
Regarding `CC(C)NC(=O)c1csc(-c2c(-c3ccc(F)cc3)noc2CNCc2cccnc2)n1` [Example 1416], the IC50 was over 1000 nM.
The compound `CC(C)NC(=O)c1csc(-c2c(-c3ccc(F)cc3)noc2CNCc2ccccn2)n1` [Example 1417] yielded a 50% inhibitory concentration (IC50) of over 1000 nM.
`CC(C)NC(=O)c1csc(-c2c(-c3ccc(F)cc3)noc2CNCc2ccncc2)n1` [Example 1418] gave a 50% inhibitory concentration (IC50) of over 1000 nM.
The compound `CC(C)NC(=O)c1csc(-c2c(-c3ccc(F)cc3)noc2CNCc2cccs2)n1` [Example 1419] yielded an IC50 of over 1000 nM.

The term IC50 denotes the concentration needed to halve the response being measured.

(Values after patent publication US20060252807A1, “Novel ortho-terphenyl inhibitors of p38 kinase and methods of treating inflammatory disorders” (Kalypsys, Inc., priority 2005, published 2006).)
